± gives the expanded uncertainty stated by the source.
Experiment: xn = mol fraction of the nth substance listed
Details: 298.15 K, 101 kPa, Liquid

C=COCCC [propyl vinyl ether] + CCCO
Details | mass density [kg/m3]
x1 = 0.051 | 798.7 ± 0.3
x1 = 0.1008 | 796.3 ± 0.3
x1 = 0.2001 | 791.7 ± 0.3
x1 = 0.2995 | 787.3 ± 0.3
x1 = 0.4016 | 782.9 ± 0.3
x1 = 0.4983 | 779.1 ± 0.3
x1 = 0.5999 | 775.3 ± 0.3
x1 = 0.7013 | 771.8 ± 0.3
x1 = 0.7977 | 768.7 ± 0.3
x1 = 0.8977 | 765.7 ± 0.3
x1 = 0.9507 | 764.3 ± 0.3

C=COCCC [propyl vinyl ether] + CC(C)CC(C)(C)C
Details | mass density [kg/m3]
x1 = 0.0468 | 690 ± 0.4
x1 = 0.1011 | 692.6 ± 0.4
x1 = 0.1999 | 697.5 ± 0.3
x1 = 0.2997 | 703 ± 0.3
x1 = 0.399 | 709 ± 0.3
x1 = 0.5009 | 715.9 ± 0.3
x1 = 0.6008 | 723.4 ± 0.3
x1 = 0.7005 | 731.6 ± 0.3
x1 = 0.7997 | 740.8 ± 0.3
x1 = 0.8991 | 751.2 ± 0.3
x1 = 0.9507 | 757.1 ± 0.3

CC(C)CC(C)(C)C [2,2,4-trimethylpentane] + CCCO
Details | mass density [kg/m3]
x2 = 0.0531 | 690.2 ± 0.4
x2 = 0.098 | 692.4 ± 0.4
x2 = 0.1986 | 698.3 ± 0.3
x2 = 0.2981 | 705.1 ± 0.3
x2 = 0.3987 | 713.1 ± 0.3
x2 = 0.4987 | 722.3 ± 0.3
x2 = 0.5987 | 732.9 ± 0.3
x2 = 0.6994 | 745.8 ± 0.3
x2 = 0.8007 | 761 ± 0.3
x2 = 0.9 | 779.2 ± 0.3
x2 = 0.9499 | 789.6 ± 0.3

Reference: the NIST ThermoML archive (doi:10.1016/j.fluid.2007.07.002)
